Experimental data reported in ChEMBL document CHEMBL4002569, “Improved anticancer and antiparasitic activity of new lawsone Mannich bases” (Eur J Med Chem, 2017).
pIC50: −log10 of the molar value. Activity calls are given as the source filed them. The rule behind the calls is not given here.

How the values were obtained:
MDA-MB-231 [1] = test: Antiproliferative activity against human MDA-MB-231 cells at 1 to 50 uM after 96 hrs by MTT assay; assay type: functional, cell-based
KB-V1 = test: Antiproliferative activity against vinblastine-resistant human KBV1 cells after 72 hrs by MTT assay; assay type: functional, cell-based; conditions: KB-V1, 72 h
PC-3 [2] = test: Antiproliferative activity against human PC3 cells at 1 to 50 uM after 96 hrs by MTT assay; assay type: functional, cell-based
BXPC-3 [3] = test: Antiproliferative activity against human BxPC3 cells at 1 to 50 uM after 96 hrs by MTT assay; assay type: functional, cell-based
518A2 [4] = test: Antiproliferative activity against human 518A2 cells after 72 hrs by MTT assay; assay type: functional, cell-based; conditions: 518A2, 72 h
PANC-1 = test: Antiproliferative activity against human PANC1 cells after 72 hrs by MTT assay; assay type: functional, cell-based; conditions: PANC-1, 72 h
HCT-116 = test: Antiproliferative activity against human HCT116 cells after 72 hrs by MTT assay; assay type: functional, cell-based; conditions: HCT-116, 72 h
Entamoeba histolytica [5] = test: Antiamoebic activity against Entamoeba histolytica assessed as growth inhibition at 200 ug/ml after 48 hrs by trypan blue dye-based hemocytometer relative to control; assay type: functional; conditions: read-out: GI
Entamoeba histolytica [6] = test: Antiamoebic activity against Entamoeba histolytica assessed as growth inhibition at 200 ug/ml after 72 hrs by trypan blue dye-based hemocytometer relative to control; assay type: functional; conditions: read-out: GI
Entamoeba histolytica [7] = test: Antiamoebic activity against Entamoeba histolytica assessed as growth inhibition at 200 ug/ml after 24 hrs by trypan blue dye-based hemocytometer relative to control; assay type: functional; conditions: read-out: GI
PC-3 [8] = test: Antiproliferative activity against human PC3 cells at <10 uM after 96 hrs by MTT assay; assay type: functional, cell-based
PC-3 [9] = test: Antiproliferative activity against human PC3 cells at >10 to 25 uM after 96 hrs by MTT assay; assay type: functional, cell-based
BXPC-3 [10] = test: Antiproliferative activity against human BxPC3 cells at <10 uM after 96 hrs by MTT assay; assay type: functional, cell-based
MDA-MB-231 [11] = test: Antiproliferative activity against human MDA-MB-231 cells at >10 to 25 uM after 96 hrs by MTT assay; assay type: functional, cell-based
BXPC-3 [12] = test: Antiproliferative activity against human BxPC3 cells at >10 to 25 uM after 96 hrs by MTT assay; assay type: functional, cell-based
MDA-MB-231 [13] = test: Antiproliferative activity against human MDA-MB-231 cells at <10 uM after 96 hrs by MTT assay; assay type: functional, cell-based
[14] = system: Trypanosoma brucei brucei; test: Antitrypanosomal activity against bloodstream trypomastigote form of Trypanosoma brucei brucei 65.3 […] after 72 hrs by Alamar Blue assay; assay type: functional, cell-based; conditions: Trypanosoma brucei, 65.3, 72 h
518A2 [15] = test: Induction of reactive oxygen species generation in human 518A2 cells at 0.5 uM after 24 hrs by NBT assay relative to control; assay type: functional
[16] = system: Trypanosoma brucei brucei; test: Antitrypanosomal activity against bloodstream trypomastigote form of Trypanosoma brucei brucei 65.3 assessed as deformation of microtubule cytoskeleton at 10 uM after 3 to 6 hrs by DAPI staining-based fluorescence microscopic method; assay type: functional
518A2 [17] = test: Induction of reactive oxygen species generation in human 518A2 cells at 0.1 uM after 24 hrs by NBT assay relative to control; assay type: functional
PC-3 [18] = test: Antiproliferative activity against human PC3 cells at <25 uM after 96 hrs by MTT assay; assay type: functional, cell-based
BXPC-3 [19] = test: Antiproliferative activity against human BxPC3 cells at <25 uM after 96 hrs by MTT assay; assay type: functional, cell-based
MDA-MB-231 [20] = test: Antiproliferative activity against human MDA-MB-231 cells at <25 uM after 96 hrs by MTT assay; assay type: functional, cell-based
HeLa [21] = test: Cytotoxicity against human HeLa cells assessed as effect on cytoskeleton at 10 uM after 1 to 9 hrs by DAPI staining-based fluorescence microscopic method; assay type: cell-based
HeLa [22] = test: Cytotoxicity against human HeLa cells assessed as effect on cell viability at 10 uM after 1 to 9 hrs by DAPI staining-based fluorescence microscopic method
[23] = system: Trypanosoma brucei brucei; test: Antitrypanosomal activity against bloodstream trypomastigote form of Trypanosoma brucei brucei 65.3 assessed as decrease in parasite motility at 1 uM after 0.5 to 24 hrs by DAPI staining-based fluorescence microscopic method relative to control; assay type: functional
[24] = system: Trypanosoma brucei brucei; test: Antitrypanosomal activity against bloodstream trypomastigote form of Trypanosoma brucei brucei 65.3 assessed as deformation of microtubule cytoskeleton at 1 uM after 0.5 to 24 hrs by DAPI staining-based fluorescence microscopic method; assay type: functional

SMILES | pIC50 (KB-V1) | pIC50 (518A2 [4]) | pIC50 (PANC-1) | pIC50 (HCT-116) | growth inhibition (GI) (PC-3 [8]) | growth inhibition (GI) (PC-3 [9]) | growth inhibition (GI) (BXPC-3 [10]) | growth inhibition (GI) (MDA-MB-231 [11]) | growth inhibition (GI) (BXPC-3 [12]) | growth inhibition (GI) (MDA-MB-231 [13]) | other results
CCCCCCCCCCCCCCCCNC(C1=C(O)C(=O)c2ccccc2C1=O)c1ccc(O)c(OC)c1 (stereo unspecified) | 4.78 | 4.91 | 5.10 | 4.94 | – | – | – | – | – | – | growth inhibition (GI) (MDA-MB-231 [1]): Active; growth inhibition (GI) (PC-3 [2]): Active; growth inhibition (GI) (BXPC-3 [3]): Active
Cc1ncc([N+](=O)[O-])n1CCO [METRONIDAZOLE] | – | – | – | – | – | – | – | – | – | – | inhibition of growth at 200 µg/mL (Entamoeba histolytica [5]): 58.7%; inhibition of growth at 200 µg/mL (Entamoeba histolytica [6]): 60.4%; inhibition of growth at 200 µg/mL (Entamoeba histolytica [7]): 54.1%
CCCCCCCCCCCCCCCCNC(C1=C(O)C(=O)c2ccccc2C1=O)c1ccc(F)c(F)c1 (stereo unspecified) | – | – | – | – | inactive | Active | inactive | Active | Active | inactive | –
O=C1C(O)=C(C(NCc2ccccn2)c2ccc(F)c(F)c2)C(=O)c2ccccc21 (stereo unspecified) | – | – | – | – | inactive | Active | inactive | Active | Active | inactive | –
CCCCCCCCCCCCCCNC(C1=C(O)C(=O)c2ccccc2C1=O)c1ccc(F)c(F)c1 (stereo unspecified) | – | – | – | – | inactive | Active | inactive | Active | Active | inactive | –
CCCCCCCNC(C1=C(O)C(=O)c2ccccc2C1=O)c1ccccn1 (stereo unspecified) | 6.39 | 5.59 | 5.19 | 5.19 | – | – | – | – | – | – | pIC50 [14]: 5.43; Activity (518A2 [15]): 70%; Activity [16]: inactive; Activity (518A2 [17]): 50%
CCCCCCCNC(C1=C(O)C(=O)c2ccccc2C1=O)c1ccc(O)c(OC)c1 (stereo unspecified) | – | – | – | – | – | – | – | – | – | – | growth inhibition (GI) (PC-3 [18]): inactive; growth inhibition (GI) (BXPC-3 [19]): inactive; growth inhibition (GI) (MDA-MB-231 [20]): inactive
COc1cc(C(NCc2ccccc2)C2=C(O)C(=O)c3ccccc3C2=O)ccc1O (stereo unspecified) | – | – | – | – | – | – | – | – | – | – | growth inhibition (GI) (PC-3 [18]): inactive; growth inhibition (GI) (BXPC-3 [19]): inactive; growth inhibition (GI) (MDA-MB-231 [20]): inactive
CCCCCCCCCCCCNC(C1=C(O)C(=O)c2ccccc2C1=O)c1ccccn1 (stereo unspecified) | 6.49 | 5.59 | 5.75 | 5.46 | – | – | – | – | – | – | pIC50 [14]: 6.19; growth inhibition (GI) (MDA-MB-231 [1]): Active; Activity (518A2 [15]): 70%; growth inhibition (GI) (PC-3 [2]): Active; growth inhibition (GI) (BXPC-3 [3]): Active; Activity (HeLa [21]): Non-Toxic; Activity (HeLa [22]): Non-Toxic; Activity [23]: Active; Activity [24]: Active; Activity (518A2 [17]): 50%
